{"source": "ChEMBL document CHEMBL5046282", "about": "“Discovery of Brain-Penetrant Glucosylceramide Synthase Inhibitors with a Novel Pharmacophore” (J Med Chem, 2022)", "key": {"[1]": {"target": "T1, Ceramide glucosyltransferase (Mus musculus, UniProt O88693)", "T1 sequence (O88693 whole entry)": "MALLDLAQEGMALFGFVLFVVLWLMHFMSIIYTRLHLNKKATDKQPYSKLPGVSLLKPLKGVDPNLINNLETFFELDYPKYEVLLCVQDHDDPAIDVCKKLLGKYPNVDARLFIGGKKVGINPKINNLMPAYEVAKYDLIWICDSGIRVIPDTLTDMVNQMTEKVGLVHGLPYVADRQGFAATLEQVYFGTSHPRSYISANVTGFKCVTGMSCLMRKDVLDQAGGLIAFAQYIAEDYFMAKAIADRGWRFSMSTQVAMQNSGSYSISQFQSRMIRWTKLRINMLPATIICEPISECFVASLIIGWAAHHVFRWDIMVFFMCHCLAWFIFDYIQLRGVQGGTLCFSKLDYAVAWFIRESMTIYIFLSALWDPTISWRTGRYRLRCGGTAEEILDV", "test": "Inhibition of mouse GCS using C8-ceramide and UDP-glucose as substrate incubated for 1 hr by RapidFire mass spectrometry"}, "[2]": {"target": "Cav1.2 (Homo sapiens, UniProt Q13936)", "test": "Inhibition of human Cav1.2 expressed in HEK293 cells at 30 uM by automated electrophysiology QPatch HT assay", "assay_type": "toxicity, cell-based", "conditions": "HEK293 cells expressing Cav1.2"}, "[3]": {"target": "T2, CYP2C8 (Homo sapiens, UniProt P10632)", "T2 sequence (P10632 whole entry)": "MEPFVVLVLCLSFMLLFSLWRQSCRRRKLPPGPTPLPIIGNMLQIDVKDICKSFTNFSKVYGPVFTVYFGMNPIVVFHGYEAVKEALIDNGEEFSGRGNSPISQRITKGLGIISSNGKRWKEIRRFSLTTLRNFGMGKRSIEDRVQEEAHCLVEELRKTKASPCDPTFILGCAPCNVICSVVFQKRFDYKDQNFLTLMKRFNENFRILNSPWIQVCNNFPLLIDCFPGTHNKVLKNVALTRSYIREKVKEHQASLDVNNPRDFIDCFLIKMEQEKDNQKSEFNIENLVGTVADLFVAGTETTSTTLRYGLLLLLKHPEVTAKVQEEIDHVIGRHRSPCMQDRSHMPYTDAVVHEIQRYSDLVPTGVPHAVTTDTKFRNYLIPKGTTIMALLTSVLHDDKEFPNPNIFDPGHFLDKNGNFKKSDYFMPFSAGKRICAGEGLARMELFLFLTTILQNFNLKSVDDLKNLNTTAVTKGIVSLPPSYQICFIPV", "test": "Inhibition of CYP2C8 in human liver microsomes using paclitaxel as substrate at 10 uM in presence of NADPH generating system incubated for 10 mins", "assay_type": "ADME", "conditions": "probe paclitaxel"}, "[4]": {"target": "Ceramide glucosyltransferase (Homo sapiens, UniProt Q16739)", "test": "Inhibition of GCS in GBA mutant human fibroblasts assessed as reduction in glucosylceramide level incubated for 4 days by RapdiFire-MS/MS analysis", "assay_type": "cell-based", "conditions": "fibroblast"}, "[5]": {"target": "T3, hERG (Homo sapiens, UniProt Q12809)", "T3 sequence (Q12809 whole entry)": "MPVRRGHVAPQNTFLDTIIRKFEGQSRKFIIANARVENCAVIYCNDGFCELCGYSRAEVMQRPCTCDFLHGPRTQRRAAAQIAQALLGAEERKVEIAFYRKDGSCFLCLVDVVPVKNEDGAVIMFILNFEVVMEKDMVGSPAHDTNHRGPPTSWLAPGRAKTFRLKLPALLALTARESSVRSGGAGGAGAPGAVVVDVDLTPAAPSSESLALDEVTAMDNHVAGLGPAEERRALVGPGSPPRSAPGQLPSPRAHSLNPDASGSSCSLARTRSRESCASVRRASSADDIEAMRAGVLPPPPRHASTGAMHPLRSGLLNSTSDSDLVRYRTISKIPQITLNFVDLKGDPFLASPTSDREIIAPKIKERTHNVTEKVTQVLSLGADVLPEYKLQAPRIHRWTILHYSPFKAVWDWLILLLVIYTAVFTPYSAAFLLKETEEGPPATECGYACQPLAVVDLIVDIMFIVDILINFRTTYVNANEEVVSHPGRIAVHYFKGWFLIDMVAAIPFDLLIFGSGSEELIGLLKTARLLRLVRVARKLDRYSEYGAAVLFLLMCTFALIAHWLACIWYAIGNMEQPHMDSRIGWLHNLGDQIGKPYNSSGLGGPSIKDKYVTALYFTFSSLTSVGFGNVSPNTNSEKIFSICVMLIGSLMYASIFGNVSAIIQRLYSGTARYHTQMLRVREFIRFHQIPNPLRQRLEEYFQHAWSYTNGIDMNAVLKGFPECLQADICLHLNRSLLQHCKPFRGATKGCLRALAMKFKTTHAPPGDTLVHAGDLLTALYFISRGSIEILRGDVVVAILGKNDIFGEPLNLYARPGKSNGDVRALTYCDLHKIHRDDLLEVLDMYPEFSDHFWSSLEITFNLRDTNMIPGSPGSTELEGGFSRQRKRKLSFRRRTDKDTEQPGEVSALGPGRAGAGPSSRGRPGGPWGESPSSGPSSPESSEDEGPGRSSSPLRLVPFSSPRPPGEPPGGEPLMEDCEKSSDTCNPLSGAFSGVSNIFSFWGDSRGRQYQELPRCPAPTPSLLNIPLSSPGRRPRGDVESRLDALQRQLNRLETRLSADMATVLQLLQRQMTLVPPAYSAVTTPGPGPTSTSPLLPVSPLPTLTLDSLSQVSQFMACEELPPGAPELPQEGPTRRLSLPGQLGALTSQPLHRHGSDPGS", "test": "Inhibition of hERG expressed in CHO-K1 cells at 30 uM by automated whole cell patch clamp assay", "assay_type": "toxicity, cell-based", "conditions": "CHO-K1 cells expressing hERG"}, "[6]": {"test": "Efflux ratio of apparent permeability from basolateral to apical side over apical to basolateral side in dog MDCK-MDR1 cells at 1 uM measured after 1 hr by LC-MS/MS analysis", "assay_type": "ADME, cell-based, Canis lupus familiaris"}, "[7]": {"test": "Volume of distribution at steady state in non-fasted ICR mouse at 0.5 mg/kg, iv by LC-MS/MS analysis", "assay_type": "ADME, organism-based", "conditions": "in vivo, read-out: Vdss"}, "[8]": {"test": "AUC in non-fasted ICR mouse at 5 mg/kg, po by LC-MS/MS analysis", "assay_type": "ADME, organism-based", "set-up": "dose 5 mg/kg", "conditions": "in vivo"}, "[9]": {"target": "CYP2D6 (Homo sapiens, UniProt P10635)", "test": "Inhibition of CYP2D6 in human liver microsomes using dextromethorphan as substrate at 10 uM in presence of NADPH generating system incubated for 10 mins", "assay_type": "ADME", "conditions": "probe dextromethorphan"}, "[10]": {"test": "Cmax in non-fasted ICR mouse at 5 mg/kg, po by LC-MS/MS analysis", "assay_type": "ADME, organism-based", "set-up": "route oral, dose 5 mg/kg", "conditions": "in vivo"}, "[11]": {"target": "Sodium-dependent serotonin transporter (Homo sapiens, UniProt P31645)", "sequence (P31645 whole entry)": "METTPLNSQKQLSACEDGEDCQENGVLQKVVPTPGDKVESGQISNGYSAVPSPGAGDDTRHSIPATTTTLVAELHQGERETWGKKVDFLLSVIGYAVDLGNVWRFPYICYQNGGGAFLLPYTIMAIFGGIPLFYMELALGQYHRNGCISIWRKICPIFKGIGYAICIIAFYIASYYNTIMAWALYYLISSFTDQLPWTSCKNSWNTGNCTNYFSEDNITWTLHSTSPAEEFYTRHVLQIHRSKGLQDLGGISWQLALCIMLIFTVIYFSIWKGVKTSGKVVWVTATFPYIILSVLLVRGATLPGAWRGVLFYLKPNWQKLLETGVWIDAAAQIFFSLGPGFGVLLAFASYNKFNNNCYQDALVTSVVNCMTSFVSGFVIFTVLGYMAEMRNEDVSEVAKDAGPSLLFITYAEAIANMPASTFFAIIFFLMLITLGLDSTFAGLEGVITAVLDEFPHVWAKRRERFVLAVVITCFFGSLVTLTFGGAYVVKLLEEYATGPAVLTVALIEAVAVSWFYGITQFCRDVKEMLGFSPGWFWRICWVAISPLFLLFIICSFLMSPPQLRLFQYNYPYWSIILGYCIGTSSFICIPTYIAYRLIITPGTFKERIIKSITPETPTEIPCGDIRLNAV", "test": "Inhibition of human SERT", "assay_type": "toxicity"}, "[12]": {"test": "1-Octanol/aqueous buffer partition coefficient, logD of the compound at pH 7.4 by chromatographic method", "assay_type": "physicochemical"}, "[13]": {"test": "Toxicity in C57BL/6J mouse assessed as change in body weight at 30 to 100 mg/kg, po", "assay_type": "organism-based", "conditions": "in vivo, dose 30-100 mg/kg"}, "[14]": {"target": "T3, hERG", "test": "Inhibition of hERG expressed in CHO-K1 cells at 10 uM incubated for 5 mins by whole cell-automated voltage clamp analysis", "assay_type": "toxicity, cell-based", "conditions": "CHO-K1 cells expressing hERG"}, "[15]": {"test": "Cardiotoxicity in human iPSC-derived cardiomyocytes assessed as minimum effective concentration required for intracellular calcium transients-mediated proarrhythmic activity by Fluo-4 dye based fluorescence analysis", "assay_type": "toxicity", "conditions": "cardiac muscle cell"}, "[16]": {"target": "Nav1.5 (Homo sapiens, UniProt Q14524)", "sequence (Q14524 whole entry)": "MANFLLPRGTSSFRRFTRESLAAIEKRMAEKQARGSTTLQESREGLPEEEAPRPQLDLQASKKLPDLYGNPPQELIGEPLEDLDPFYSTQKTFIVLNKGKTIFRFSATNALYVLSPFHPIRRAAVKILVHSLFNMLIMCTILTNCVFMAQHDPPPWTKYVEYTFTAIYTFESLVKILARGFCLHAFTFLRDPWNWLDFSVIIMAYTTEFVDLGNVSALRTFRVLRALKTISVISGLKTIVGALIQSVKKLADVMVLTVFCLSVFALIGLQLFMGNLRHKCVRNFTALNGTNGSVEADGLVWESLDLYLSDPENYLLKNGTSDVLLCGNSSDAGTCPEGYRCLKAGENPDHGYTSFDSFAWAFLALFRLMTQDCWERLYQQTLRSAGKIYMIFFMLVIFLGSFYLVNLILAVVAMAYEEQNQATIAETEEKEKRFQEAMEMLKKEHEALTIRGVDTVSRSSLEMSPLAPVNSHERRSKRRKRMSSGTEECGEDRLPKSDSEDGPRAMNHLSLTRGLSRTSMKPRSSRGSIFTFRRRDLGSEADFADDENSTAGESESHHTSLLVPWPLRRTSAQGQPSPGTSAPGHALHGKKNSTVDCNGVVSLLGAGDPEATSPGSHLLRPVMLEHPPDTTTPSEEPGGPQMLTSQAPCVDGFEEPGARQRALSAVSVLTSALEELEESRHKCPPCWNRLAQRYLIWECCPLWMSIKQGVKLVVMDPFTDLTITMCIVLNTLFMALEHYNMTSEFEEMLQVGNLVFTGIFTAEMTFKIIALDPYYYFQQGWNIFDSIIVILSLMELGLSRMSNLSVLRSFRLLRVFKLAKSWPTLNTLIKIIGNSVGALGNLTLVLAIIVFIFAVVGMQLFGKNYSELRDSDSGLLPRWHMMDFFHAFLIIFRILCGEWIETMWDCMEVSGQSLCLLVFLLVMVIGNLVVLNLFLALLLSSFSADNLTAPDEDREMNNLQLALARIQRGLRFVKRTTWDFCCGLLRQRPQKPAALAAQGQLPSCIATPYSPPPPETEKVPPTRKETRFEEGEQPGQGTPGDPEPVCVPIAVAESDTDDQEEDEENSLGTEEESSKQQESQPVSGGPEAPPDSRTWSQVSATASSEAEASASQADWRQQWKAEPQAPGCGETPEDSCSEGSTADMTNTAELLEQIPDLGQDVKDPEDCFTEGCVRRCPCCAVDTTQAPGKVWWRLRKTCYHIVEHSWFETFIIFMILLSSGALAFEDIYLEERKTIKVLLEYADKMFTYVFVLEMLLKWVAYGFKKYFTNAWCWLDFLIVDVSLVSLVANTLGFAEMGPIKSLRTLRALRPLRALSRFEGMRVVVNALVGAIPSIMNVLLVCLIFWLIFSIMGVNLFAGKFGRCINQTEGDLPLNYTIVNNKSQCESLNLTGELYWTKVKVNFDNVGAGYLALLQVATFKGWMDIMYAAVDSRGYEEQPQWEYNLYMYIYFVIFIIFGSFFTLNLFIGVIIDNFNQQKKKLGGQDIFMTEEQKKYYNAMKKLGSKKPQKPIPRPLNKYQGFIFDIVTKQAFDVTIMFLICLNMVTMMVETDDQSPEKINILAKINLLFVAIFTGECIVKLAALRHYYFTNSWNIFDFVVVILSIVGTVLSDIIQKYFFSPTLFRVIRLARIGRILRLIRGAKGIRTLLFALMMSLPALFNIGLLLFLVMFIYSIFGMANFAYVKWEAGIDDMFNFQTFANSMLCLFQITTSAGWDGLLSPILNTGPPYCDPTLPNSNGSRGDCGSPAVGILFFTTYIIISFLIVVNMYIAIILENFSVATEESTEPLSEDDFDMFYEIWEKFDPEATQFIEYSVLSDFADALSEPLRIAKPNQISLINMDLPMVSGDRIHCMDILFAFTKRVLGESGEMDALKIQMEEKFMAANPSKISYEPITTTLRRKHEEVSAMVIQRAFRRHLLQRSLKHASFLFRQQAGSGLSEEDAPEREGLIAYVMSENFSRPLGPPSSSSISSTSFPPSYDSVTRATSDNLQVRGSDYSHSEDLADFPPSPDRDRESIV", "test": "Inhibition of human Nav1.5 at 30 uM by automated whole cell patch clamp assay", "assay_type": "toxicity"}, "[17]": {"test": "Toxicity in Sprague-Dawley rat assessed as reduction in body weight at 30 to 100 mg/kg, po administered once daily for 3 days", "assay_type": "organism-based", "conditions": "in vivo, 72 h, dose 30-100 mg/kg, time 3 day"}, "[18]": {"test": "Oral bioavailability in non-fasted ICR mouse at 5 mg/kg by LC-MS/MS analysis", "assay_type": "ADME, organism-based", "conditions": "in vivo"}, "[19]": {"test": "Plasma clearance in non-fasted ICR mouse at 0.5 mg/kg, iv by LC-MS/MS analysis", "assay_type": "ADME, organism-based"}, "[20]": {"test": "Kinetic solubility of the compound in JP2 fluid at pH 6.8 by precipitation method", "assay_type": "physicochemical", "conditions": "read-out: Kinetic_solubility"}, "[21]": {"test": "MRT in non-fasted ICR mouse at 0.5 mg/kg, iv by LC-MS/MS analysis", "assay_type": "ADME, organism-based", "conditions": "in vivo"}, "[22]": {"test": "Ratio of unbound drug concentration in brain to plasma of non-fasted ICR mouse at 30 mg/kg, po measured after 1 hr by LC-MS/MS analysis", "assay_type": "ADME, organism-based", "conditions": "read-out: K(p,uu,brain)"}, "[23]": {"target": "CYP3A4 (Homo sapiens, UniProt P08684)", "sequence (P08684 whole entry)": "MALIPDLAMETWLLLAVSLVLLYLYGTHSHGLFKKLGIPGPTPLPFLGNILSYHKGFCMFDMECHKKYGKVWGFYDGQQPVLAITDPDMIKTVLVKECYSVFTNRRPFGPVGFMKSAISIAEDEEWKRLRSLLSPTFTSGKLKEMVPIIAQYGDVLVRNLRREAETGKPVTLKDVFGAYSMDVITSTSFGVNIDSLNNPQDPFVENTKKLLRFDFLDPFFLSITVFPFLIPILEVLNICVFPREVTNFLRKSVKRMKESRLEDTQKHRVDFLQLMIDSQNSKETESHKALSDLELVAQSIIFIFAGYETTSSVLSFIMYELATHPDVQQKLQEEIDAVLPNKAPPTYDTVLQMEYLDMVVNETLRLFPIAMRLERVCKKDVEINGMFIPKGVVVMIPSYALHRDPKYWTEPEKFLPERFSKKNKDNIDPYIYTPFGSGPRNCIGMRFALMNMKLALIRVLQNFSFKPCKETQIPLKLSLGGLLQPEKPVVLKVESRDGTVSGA", "test": "Inhibition of CYP3A4 in human liver microsomes using midazolam as substrate at 10 uM in presence of NADPH generating system incubated for 10 mins", "assay_type": "ADME", "conditions": "probe midazolam"}, "[24]": {"test": "Cardiotoxicity in human iPSC-derived cardiomyocytes assessed as induction of proarrhythmic activity at 30 uM by Fluo-4 dye based fluorescence analysis", "assay_type": "toxicity", "conditions": "cardiac muscle cell"}, "[25]": {"test": "MRT in non-fasted ICR mouse at 5 mg/kg, po by LC-MS/MS analysis", "assay_type": "ADME, organism-based", "conditions": "in vivo"}, "[26]": {"test": "Intrinsic clearance in mouse liver microsomes at 1 uM in presence of NADPH generating system assessed per mg protein by LC-MS/MS analysis", "assay_type": "ADME, Microsome", "conditions": "read-out: CLH"}, "[27]": {"target": "CYP2C9 (Homo sapiens, UniProt P11712)", "sequence (P11712 whole entry)": "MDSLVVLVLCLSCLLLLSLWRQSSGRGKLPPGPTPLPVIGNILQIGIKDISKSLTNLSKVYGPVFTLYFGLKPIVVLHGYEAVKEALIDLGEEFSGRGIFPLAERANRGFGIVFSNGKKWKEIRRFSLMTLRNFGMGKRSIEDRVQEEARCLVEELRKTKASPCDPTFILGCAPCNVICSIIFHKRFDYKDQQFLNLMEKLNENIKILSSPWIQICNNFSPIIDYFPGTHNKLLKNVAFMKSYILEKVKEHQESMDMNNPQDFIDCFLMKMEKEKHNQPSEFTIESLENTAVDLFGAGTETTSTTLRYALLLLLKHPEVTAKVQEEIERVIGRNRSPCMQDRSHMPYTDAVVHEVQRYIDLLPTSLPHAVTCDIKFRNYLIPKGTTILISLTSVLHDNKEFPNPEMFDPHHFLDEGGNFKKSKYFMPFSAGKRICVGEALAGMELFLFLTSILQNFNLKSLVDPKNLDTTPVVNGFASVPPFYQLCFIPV", "test": "Inhibition of CYP2C9 in human liver microsomes using tolbutamide as substrate at 10 uM in presence of NADPH generating system incubated for 10 mins", "assay_type": "ADME", "conditions": "probe tolbutamide"}, "[28]": {"target": "T4, CYP1A2 (Homo sapiens, UniProt P05177)", "T4 sequence (P05177 whole entry)": "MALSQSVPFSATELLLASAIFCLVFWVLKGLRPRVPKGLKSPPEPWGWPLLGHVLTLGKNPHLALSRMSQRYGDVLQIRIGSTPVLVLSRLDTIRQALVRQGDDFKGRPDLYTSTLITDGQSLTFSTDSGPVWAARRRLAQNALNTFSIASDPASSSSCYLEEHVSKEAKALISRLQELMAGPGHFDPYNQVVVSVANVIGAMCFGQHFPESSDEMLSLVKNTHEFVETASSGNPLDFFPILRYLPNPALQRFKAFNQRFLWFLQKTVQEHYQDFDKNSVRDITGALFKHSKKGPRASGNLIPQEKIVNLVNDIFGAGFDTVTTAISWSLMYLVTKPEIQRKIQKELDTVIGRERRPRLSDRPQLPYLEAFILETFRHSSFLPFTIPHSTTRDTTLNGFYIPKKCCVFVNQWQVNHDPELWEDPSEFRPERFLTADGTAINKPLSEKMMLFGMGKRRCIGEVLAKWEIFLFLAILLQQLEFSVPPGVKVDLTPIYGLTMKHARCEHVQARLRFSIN", "test": "Inhibition of CYP1A2 in human liver microsomes using tacrine as substrate at 10 uM in presence of NADPH generating system incubated for 10 mins", "assay_type": "ADME", "conditions": "probe tacrine"}, "[29]": {"test": "Unbound drug concentration in brain of non-fasted ICR mouse at 30 mg/kg, po measured after 1 hr by LC-MS/MS analysis", "assay_type": "ADME, organism-based", "conditions": "in vivo"}}}
{"smiles": "CC(C)(O)c1ccc(N2Cc3c(ccnc3-c3ccc(F)cc3OCC(F)(F)F)C2=O)cc1", "values": [{"measurement": "IC50", "setting": "[1]", "result": 51, "unit": "nM"}, {"measurement": "inhibition at 30 µM", "setting": "[2]", "result": 2.4, "unit": "%"}, {"measurement": "inhibition at 10 min, 10 µM", "setting": "[3]", "result": 22.4, "unit": "%"}, {"measurement": "EC50", "setting": "[4]", "result": 7.6, "unit": "nM"}, {"measurement": "inhibition at 30 µM", "setting": "[5]", "result": 42, "unit": "%"}, {"measurement": "efflux ratio at 1 h, 1 µM", "setting": "[6]", "result": 9.6}, {"measurement": "Vd", "setting": "[7]", "result": 1.08, "unit": "L/kg"}, {"measurement": "AUC", "setting": "[8]", "result": 10700, "unit": "ng·h/mL"}, {"measurement": "inhibition at 10 min, 10 µM", "setting": "[9]", "result": 10.9, "unit": "%"}, {"measurement": "Cmax", "setting": "[10]", "result": 1180, "unit": "ng/mL"}, {"measurement": "IC50", "setting": "[11]", "result": 310, "unit": "nM"}, {"measurement": "chromatographic logD", "setting": "[12]", "result": 2.48}, {"measurement": "Activity", "setting": "[13]", "result": "Non-Toxic"}, {"measurement": "inhibition at 5 min, 10 µM", "setting": "[14]", "result": 13.8, "unit": "%"}, {"measurement": "MEC", "setting": "[15]", "result": "> 30", "unit": "µM"}, {"measurement": "inhibition at 30 µM", "setting": "[16]", "result": 7.1, "unit": "%"}, {"measurement": "Activity", "setting": "[17]", "result": "Toxic"}, {"measurement": "bioavailability", "setting": "[18]", "result": 67, "unit": "%"}, {"measurement": "clearance", "setting": "[19]", "result": 5.23, "unit": "mL/min/kg"}, {"measurement": "solubility kinetic", "setting": "[20]", "result": 5.2, "unit": "µg/mL"}, {"measurement": "MRT", "setting": "[21]", "result": 3.44, "unit": "h"}, {"measurement": "Kp uu at 1 h", "setting": "[22]", "result": 0.11}, {"measurement": "inhibition at 10 min, 10 µM", "setting": "[23]", "result": 15.5, "unit": "%"}, {"measurement": "Activity", "setting": "[24]", "result": "Non-Toxic"}, {"measurement": "MRT", "setting": "[25]", "result": 7.14, "unit": "h"}, {"measurement": "microsomal CLint at 1 µM", "setting": "[26]", "result": 6, "unit": "µL/min/mg"}, {"measurement": "inhibition at 10 min, 10 µM", "setting": "[27]", "result": 37.9, "unit": "%"}, {"measurement": "inhibition at 10 min, 10 µM", "setting": "[28]", "result": 5.8, "unit": "%"}, {"measurement": "Drug uptake(free)", "setting": "[29]", "result": 0.24, "unit": "µM"}]}
